Results on 31 compounds are retold here after PubChem BioAssay AID608 (Sanford-Burnham Center for Chemical Genomics, 2007).

The structures appear in SMILES notation. The source made the active and inactive calls. How the calls were made is not given here.

For the test, the target named is Peptidyl-prolyl cis-trans isomerase FKBP1A (Homo sapiens) (UniProt P62942). Put plainly: FKBP12 binders, biophysical, NMR detection (AID 608). Particulars: NMR binding, purified FKBP12.
Sequence of Peptidyl-prolyl cis-trans isomerase FKBP1A (Homo sapiens) (P62942 whole entry, looked up): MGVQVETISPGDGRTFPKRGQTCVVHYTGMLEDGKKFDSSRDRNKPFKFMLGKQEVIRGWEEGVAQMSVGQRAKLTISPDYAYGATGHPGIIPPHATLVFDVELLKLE
For the compound `Cc1cc(O)c2c(c1O)C(=O)c1c(O)cc(C)c(O)c1C2=O`, the Kd was > 4 mM (inactive).

For `OCc1cccc2c1OCCO2`, the Kd is > 4 mM (inactive).

As for `Nc1ncnc(NCc2cccnc2)c1[N+](=O)[O-]`, the Kd was > 4 mM (inactive).

Turning to `O=C1NC(=O)C(C2SC(=O)NC2=O)S1` (stereo unspecified), the Kd was > 4 mM (inactive).

For the compound `COC(=O)CSc1n[nH]c(N)n1`, the Kd was > 4 mM (inactive).

In the case of `Cc1n[nH]c(=O)c2ncn(C)c12`, the Kd was > 4 mM (inactive).

`Nc1cncc(C(=O)O)c1`: the Kd was > 4 mM (inactive).

`CC(=O)N1N=C(N)SC1c1cccnc1` (stereo unspecified): the Kd was > 4 mM (inactive).

As to `COc1cc(C)nc(N(CCO)CCO)n1`, the Kd is > 4 mM (inactive).

With `NC(=O)CS(=O)(=O)c1ccc2ccccc2c1`, the Kd is > 4 mM (inactive).

As to `CCn1cnc2sc(C(=O)O)c(C)c2c1=O`, the Kd was > 4 mM (inactive).

Take `Cc1ccc(C(O)c2nccn2C)o1` (stereo unspecified): the Kd is > 4 mM (inactive).

`OCc1cc(F)cc2c1OCOC2`: the Kd was > 4 mM (inactive).

Consider `CC(C)c1c(O)ccc2c1CCC1[C@@](C)(C=O)CCC[C@]21C` (stereo partly specified), for which the Kd was > 4 mM (inactive).

As to `Cc1cc(CN2C(=O)c3ccccc3C2=O)on1`, the Kd is > 4 mM (inactive).

On to `O=C(Nc1ccc2c(c1)OCCO2)c1c(F)cccc1F`, for which the Kd was > 4 mM (inactive).

With `O=C(CC1Nc2ccccc2NC1=O)Nc1ccc(O)cc1` (stereo unspecified), the Kd is > 4 mM (inactive).

Take `CC[C@H](/C=C/C(C)C1CCC2C3CCC4=CC(=O)CC[C@]4(C)C3CC[C@]12C)C(C)C` (stereo partly specified): the Kd is > 4 mM (inactive).

Take `CS(=O)(=O)N1CCN(C(=O)c2ccccc2)CC1`: the Kd was > 4 mM (inactive).

Take `O=C(O)c1ccc2c(c1)CCO2`: the Kd is > 4 mM (inactive).

Turning to `Cc1cc(C(=O)Nc2ccccn2)no1`, the Kd was > 4 mM (inactive).

In the case of `COc1ccc(N2C(=N)C(C)(C)NC2=O)cc1`, the Kd was > 4 mM (inactive).

Consider `O=S1(=O)C=CC(N2CCCCC2)C1` (stereo unspecified), for which the Kd is > 4 mM (inactive).

For the compound `N=Nc1c(O)[nH]c2ccccc12`, the Kd was > 4 mM (inactive).

Turning to `COC(=O)C[C@@H]1C2(C)C(=O)[C@@H](CC3=C4CC(O)O[C@@H](c5ccoc5)[C@]4(C)CCC32)[C@H](O)C1(C)C` (stereo partly specified), the Kd is > 4 mM (inactive).

Take `CC1(C)Cc2nc3n[nH]c(N)c3cc2CO1`: the Kd is > 4 mM (inactive).

As to `OCC1CCCC1O` (stereo unspecified), the Kd was > 4 mM (inactive).

As to `CCOc1nc(C)ccc1-c1noc(-c2ccco2)n1`, the Kd is > 4 mM (inactive).

Consider `CC1=C(/C=C/C(C)=C/C=C/C(C)=C/C=C/C=C(C)/C=C/C=C(C)/C=C/C2=C(C)CCCC2(C)C)C(C)(C)CCC1`, for which the Kd is > 4 mM (inactive).

As for `COc1ccc2c(CC(=O)O)coc2c1`, the Kd was > 4 mM (inactive).

Turning to `Cc1cc(=O)n(CCc2ccccc2)c(O)c1C#N`, the Kd is > 4 mM (inactive).

The Kd is the free concentration of one partner at which half of the binding sites on the other are occupied at equilibrium, for simple one-to-one binding.
